Assay results published in patent US10414767B2, “Deuterated quinazolinone compound and pharmaceutical composition comprising same” (Suzhou Zelgen Biopharmaceuticals Co., Ltd., priority 2014, dated 2019).

Target: PI3Kδ kinase (Homo sapiens, UniProt O00329)
Experiment: In vitro pharmacodynamics evaluation to PI3K kinases

Sequence of PI3Kδ kinase (O00329 whole entry): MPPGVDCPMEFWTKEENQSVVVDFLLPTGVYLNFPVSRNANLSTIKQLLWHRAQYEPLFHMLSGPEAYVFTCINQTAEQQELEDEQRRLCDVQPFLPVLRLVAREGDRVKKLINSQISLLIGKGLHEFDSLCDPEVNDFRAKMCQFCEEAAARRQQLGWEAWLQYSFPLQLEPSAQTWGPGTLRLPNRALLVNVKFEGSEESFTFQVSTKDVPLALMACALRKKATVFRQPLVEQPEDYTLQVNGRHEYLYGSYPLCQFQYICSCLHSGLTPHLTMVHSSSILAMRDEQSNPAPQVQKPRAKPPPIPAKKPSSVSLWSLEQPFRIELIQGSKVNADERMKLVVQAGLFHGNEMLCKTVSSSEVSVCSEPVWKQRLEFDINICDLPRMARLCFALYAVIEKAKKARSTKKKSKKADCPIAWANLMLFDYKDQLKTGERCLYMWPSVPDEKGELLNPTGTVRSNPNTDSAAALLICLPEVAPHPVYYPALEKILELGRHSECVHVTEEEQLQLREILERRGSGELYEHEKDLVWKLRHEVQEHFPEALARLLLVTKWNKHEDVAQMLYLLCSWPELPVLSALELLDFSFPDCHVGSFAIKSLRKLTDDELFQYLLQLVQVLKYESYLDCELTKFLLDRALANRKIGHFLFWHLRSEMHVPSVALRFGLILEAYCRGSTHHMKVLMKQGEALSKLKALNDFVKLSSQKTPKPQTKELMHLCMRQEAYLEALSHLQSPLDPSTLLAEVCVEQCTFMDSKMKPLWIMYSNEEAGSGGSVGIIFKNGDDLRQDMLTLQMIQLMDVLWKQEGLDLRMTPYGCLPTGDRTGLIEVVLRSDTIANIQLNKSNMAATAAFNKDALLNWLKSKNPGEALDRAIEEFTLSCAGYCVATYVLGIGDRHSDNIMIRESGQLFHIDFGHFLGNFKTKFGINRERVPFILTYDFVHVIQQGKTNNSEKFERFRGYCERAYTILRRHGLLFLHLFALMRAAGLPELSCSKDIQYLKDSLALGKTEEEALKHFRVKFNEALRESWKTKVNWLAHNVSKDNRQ
Sequence of PI3Kδ kinase (P27986 whole entry partner): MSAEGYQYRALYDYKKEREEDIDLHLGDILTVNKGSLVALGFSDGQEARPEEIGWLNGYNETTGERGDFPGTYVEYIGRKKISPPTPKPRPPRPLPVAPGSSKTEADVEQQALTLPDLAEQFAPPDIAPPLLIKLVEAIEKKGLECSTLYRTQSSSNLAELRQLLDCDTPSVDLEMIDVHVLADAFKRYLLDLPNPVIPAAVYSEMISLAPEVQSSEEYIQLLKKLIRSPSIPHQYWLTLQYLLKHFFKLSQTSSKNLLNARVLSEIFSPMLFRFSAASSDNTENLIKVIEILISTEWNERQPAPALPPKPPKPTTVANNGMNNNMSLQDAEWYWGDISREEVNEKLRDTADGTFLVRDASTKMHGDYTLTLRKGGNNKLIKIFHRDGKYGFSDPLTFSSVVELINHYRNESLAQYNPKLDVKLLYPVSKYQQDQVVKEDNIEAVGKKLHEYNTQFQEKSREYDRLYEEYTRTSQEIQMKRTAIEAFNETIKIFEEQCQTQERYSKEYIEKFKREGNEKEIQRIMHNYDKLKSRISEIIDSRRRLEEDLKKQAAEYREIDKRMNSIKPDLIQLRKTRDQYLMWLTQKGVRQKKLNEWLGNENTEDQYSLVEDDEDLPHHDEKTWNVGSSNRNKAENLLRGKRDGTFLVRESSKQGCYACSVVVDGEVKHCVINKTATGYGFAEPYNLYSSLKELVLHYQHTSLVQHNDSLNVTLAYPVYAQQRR

SMILES	IC50 [nM]
[2H][C@@](C)(Nc1ncnc2[nH]cnc12)c1nc2ccc(F)cc2c(=O)n1-c1ccccc1 [Example 8, (S)-2-(1-(9H-purin-6-yl-amino)-1-d-ethyl)-6-fluoro-3-phenyl quinazoline-4(3H)-ketone]	< 20
[2H]C([2H])([2H])[C@]([2H])(Nc1ncnc2[nH]cnc12)c1nc2ccc(F)cc2c(=O)n1-c1ccccc1 [Example 9, (S)-2-(1-(9H-purin-6-yl-amino)-1,2,2,2-d4-ethyl)-6-fluoro-3-phenyl quinazoline-4(3H)-ketone]	< 20
[2H]C([2H])([2H])[C@H](Nc1ncnc2[nH]cnc12)c1nc2ccc(F)cc2c(=O)n1-c1ccccc1 [Example 10, (S)-2-(1-(9H-purin-6-yl-amino)-2,2,2-d3-ethyl)-6-fluoro-3-phenyl quinazoline-4(3H)-ketone]	< 20
